Earlier results, collected in US7501136B2, “Deodorant composition” (Kao Corporation, priority 2003, dated 2009).

Test system: Staphylococcus aureus
Conditions: against Staphylococcus aureus

Structure (SMILES): Cc1cc(O)ccc1C(C)C [isopropyl methylphenol]
- MIC (Minimum Inhibitory Concentration): 0.015%
